We go through ten compounds from patent publication US20170216234A1, “BENZOATES FOR USE IN TREATING DEMENTIA” (priority 2014, published 2017).

For one data set, the system named is AD patients. The note with it: some clinical studies; cited from earlier work.
The subject of the next data set is neuron death. The note with it: cited from earlier work.
The next data set concerns healthy humans. The note with it: cited from earlier work.
The conditions of data set [1]: both in vitro and in vivo studies; cited from earlier work.
In the next data set the test system is MCI and mild AD. The note with it: cited from earlier work.
Another data set has as its system MCI. Particulars: treatment of MCI; cited from earlier work.
Data set [2] has as its system patients with aMCI or mild AD. The data set can be described thus: Side effects, Udvalg for Kliniske Undersogelser Side-effects Rating Scale, in 24-week trial. The format is in vivo, human. On the procedure:
Systemic side effects of treatments were evaluated by means of physical and neurological examinations and laboratory tests including CBC and biochemistry and reviewed by applying the Udvalg for Kliniske Undersogelser Side-effects Rating Scale at the baseline and weeks 8, 16, and 24.

Data set [3] in a line: Brain mass by magnetic resonance imaging study. The format is in vivo.
Data set [4] deals with patients with schizophrenia. The note with it: 1000 mg/day, cited from earlier work.
For another data set, the system named is NMDAR models. Particulars: preclinical studies; cited from earlier work.
The test system of another data set is glial cells. The note with it: preclinical studies; cited from earlier work.
Data set [5] deals with patients with aMCI or mild AD. The data set can be described thus: CIBIC-plus in 24-week trial.
For data set [6], the system named is patients with aMCI or mild AD. The data set can be described thus: ADAS-cog in 24-week randomized double-blind placebo-controlled trial. The note with it: for ADAS-cog score, mean difference from baseline: all subjects.
Data set [7] has as its system patients with aMCI or mild AD. The data set can be described thus: Additional cognition composite (speed of processing, working memory, verbal learning and memory) in 24-week trial.

Regarding `N[C@@H]1CONC1=O` [D-cycloserine], the “Score on the cognitive subscale of the Alzheimer's Disease Assessment Scale (ADAS-cog)” value with AD patients is “improve their score”.
Regarding `N[C@H](CO)C(=O)O` [D-serine], the “Extent of neuron death” value in the data set on neuron death is “significantly decreases”.
For the compound `CNC1(c2ccccc2Cl)CCCCC1=O` (centres unmarked) [Ketamine], the “Spatial learning and verbal information ability” value in the data set on healthy humans is “impaired”.
Consider `C[C@]12N[C@H](Cc3ccccc31)c1ccccc12` [MK-801], for which the Apoptosis and neurodegeneration result in data set [1] is “induce apoptosis and neurodegeneration”.
Consider `CC12CC3CC(C)(C1)CC(N)(C3)C2` [Memantine], for which the “Efficacy in treating MCI (British Association for Psychopharmacology consensus statement)” value in the data set with MCI and mild AD (MCI) is on record as “neither AChEIs nor memantine is effective”. Also, the “Efficacy at the early phase, including MCI and mild AD” value with MCI and mild AD (human, in vivo) is “limited efficacy”.
Turning to `Nc1nc2ncc(CNc3ccc(C(=O)N[C@@H](CCC(=O)O)C(=O)O)cc3)nc2c(=O)[nH]1` [folic acid], the Cognitive enhancing effect entry in the data set on MCI is “failed to show convincing evidence”.
With `NC(=O)CN1CCCC1=O` [piracetam, reference compound], the Cognitive enhancing effect entry with MCI is “failed to show convincing evidence”.
In the case of `O=C([O-])c1ccccc1.[Na+]` [sodium benzoate], the Tolerability entry in data set [2] (24-week treatment) was “well-tolerated”. Also, the “Reported side effects on Udvalg for Kliniske Undersogelser Side-effects Rating Scale” value in data set [2] (all visits) is “no reported side effect”. In addition, the Brain mass result in data set [3] is on record as “can increase the brain mass”. Also, in data set [4] (chronic schizophrenia), the “Side effects in earlier schizophrenia study” value was “without obvious side effects”. In data set [4] (patients with schizophrenia), the Neurocognitive function result is listed as “beneficial”. Also, the “Effect in NMDAR models such as pain relief” value in the data set with NMDAR models was “effective”. In the data set with glial cells, the “Cell death in glial cells” value was “partially prevented cell death”. Moreover, in [5] (CDR 1 subgroup, week 24 and endpoint (p=.040, p=.018)), the “CIBIC-plus vs placebo, subgroup” value is listed as “greater improvement than placebo therapy”. Besides, the “CIBIC-plus score, subgroup” value in data set [5] (aMCI (CDR .5) subgroup) is “did no improve”. For the same compound, the “CIBIC-plus effect size vs placebo” value in data set [5] (at endpoint) was “.73”. In data set [5] (week 16 (p=.015), week 24 (p=.016), endpoint (p=.012), all subjects), the “CIBIC-plus score vs placebo” value is listed as “greater improvement”. In addition, the “ADAS-cog vs placebo, subgroup” value in data set [6] (CDR 1 subgroup, weeks 16 and 24 and endpoint (p=0151, p=.0387, p=.0092)) was “greater improvement than placebo therapy”; in [6] (CDR .5 subgroup, throughout the study (p>.05)), “not superior to the placebo therapy”. Further, the “ADAS-cog effect size (Cohen's d) vs placebo” value in [6] (at the end of the study) was “.86”. Further, the “ADAS-cog score, mean difference from baseline” value worked out at 5.9 in data set [6] (endpoint, p=.0031 vs placebo); 3.8 in data set [6] (week 8, 250-750 mg/day, p=.3730 vs placebo); 5.4 in data set [6] (week 16, p=.0021 vs placebo); 5.9 in [6] (week 24, p=.0116 vs placebo). Besides, the “Additional cognition composite vs placebo, subgroup” value in data set [7] (CDR 1 subgroup, p=.041) was “better efficacy”; in [7] (CDR .5 subgroup, p=.063), “borderline significance”. In addition, the “Additional cognition composite effect size vs placebo” value in data set [7] (endpoint) is listed as “.78”. Besides, the “Additional cognition composite vs placebo” value in data set [7] (endpoint, all subjects, p=.007) is “better than placebo”.
Turning to omega-3 fatty acid, the Cognitive enhancing effect entry in the data set with MCI is “failed to show convincing evidence”.
For vitamin E, the Cognitive enhancing effect entry with MCI was “failed to show convincing evidence”.
